The values below come from PubChem BioAssay (NCI).

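Method: 48-hour compound exposure of cells in 96-well plates, five concentrations, linear interpolation of endpoints. Here, GI50 denotes the concentration required for 50% inhibition of growth. TGI is the concentration that stops growth completely.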

Holding throughout (experiment): inhibition of tumour cell growth, NCI panel, 48 h
For assay [1], the system named is ACHN renal.
Assay [2] relates to HOP-92 NSCLC.
Assay [3] deals with IGROV1 ovarian.
Assay [4] relates to LOX IMVI melanoma.
For assay [5], the system named is NCI-H226 lung.
The test system of assay [6] is OVCAR-4 ovarian.
In assay [7] the test system is SN12C renal.
The test system of assay [8] is U251 CNS.
Assay [9] deals with UO-31 renal.

Regarding `Cc1nc2ccccc2c(=O)n1-c1ccccc1F`, the TGI in [1], in assay [2], in assay [3], in assay [4], in assay [5] and in assay [6] was over 100 µM throughout. The TGI in assay [7], in assay [8] and in [9] was over 100 µM each time.
For the compound `CCOC(=O)CCn1[nH]c(=O)c(Cl)c(Cl)c1=O`, the TGI in [1], in assay [2], in assay [3], in [4], in assay [5] and in assay [6] was over 100 µM throughout. For the same compound, the TGI in assay [7], in assay [8] and in [9] was over 100 µM in each case.
In the case of `N.N.O=C([O-])P(=O)([O-])[O-].[Na+].[Pt+4]`, the GI50 in [1], in assay [3], in assay [6], in assay [7], in assay [8] and in assay [9] was over 100 µM in each case. For the same compound, the TGI in assay [1], in [3], in assay [6], in [7], in assay [8] and in assay [9] was over 100 µM each time.
For the compound `O=C(Nc1ccc(Cl)cc1Cl)C(=O)C(C(=O)c1ccncc1)C1OC(=O)c2ccccc21` (configuration not stated), the TGI in assay [1], in [2], in assay [3], in assay [4], in assay [5] and in [6] was over 100 µM each time. In addition, the TGI in assay [7], in assay [8] and in assay [9] was over 100 µM in each case.
Take `COc1ccc(CNc2nc3cc(C(F)(F)F)ccc3nc2C)cc1OC`: the TGI was over 100 µM in [3]; 68.7 µM in [4]; 43.1 µM in assay [6]; over 100 µM in assay [7]; over 100 µM in [8]; 65.1 µM in assay [9].
As to `CC(C)c1cc2c(O)c(c1)Cc1cc(C(C)C)cc(c1O)Cc1cc(C(C)C)cc(c1O)Cc1cc(C(C)C)cc(c1O)C2`, the TGI in assay [2], in assay [3], in assay [4], in assay [5], in assay [6] and in assay [8] was over 100 µM in each case. The compound also gave a TGI in [9] of over 100 µM.
For the compound `COC(=O)C(=O)C(C(=O)C=C(C)C)C(=O)C(=O)Nc1ccc(C)cc1C` (configuration not stated), the TGI in [1], in [3], in [4], in [5], in assay [6] and in [7] was over 100 µM throughout. Also, the TGI in [8] and in [9] was over 100 µM each time.
As to `COc1cccc(N2C(=O)[C@H]3CC(C)c4c([nH]c5ccccc45)[C@H]3C2=O)c1` (some centres not stated), the TGI in assay [2] was 80.5 µM; in assay [3], over 100 µM; in assay [4], over 100 µM; in assay [5], over 100 µM; in [7], over 100 µM; in assay [8] it was over 100 µM. In assay [9], the TGI was over 100 µM.
Turning to `COC(=O)C(=Cc1cc(OC)c(OC)c(OC)c1-c1cc2c(cc1C(C)=O)OCO2)C(=O)OC`, the TGI came to 100 µM in assay [1]; 124 µM in [2]; 134 µM in assay [3]; 79.4 µM in [4]; 100 µM in [5]; 58.8 µM in [7]. This compound returned a TGI in [8] of 66.4 µM.
`COc1ccc(-c2cc(=O)c3ccccc3[nH]2)c(OC)c1`: the TGI in [1], in [3], in assay [4], in [7], in [8] and in assay [9] was over 100 µM throughout.
As to `CN(C)C(c1ccccc1)C(O)c1ccccc1` (configuration not stated), the TGI in [1], in [3], in [4], in assay [5], in assay [7] and in [8] was over 100 µM throughout. The TGI in assay [9] is over 100 µM.
As for `CCOC(=O)C(Cc1cn(S(=O)(=O)c2ccccc2)c2ccccc12)(NC(C)=O)C(=O)OCC`, the TGI in assay [1] is over 100 µM; in assay [2], 67.1 µM; in [3], over 100 µM; in assay [5], 93.6 µM; in [6], over 100 µM; in assay [8], over 100 µM. For the same compound, the TGI in assay [9] stood at 55.8 µM.
As to `Fc1ccc(C2SCc3nc4ccccc4n32)cc1Cl` (configuration not stated), the TGI was over 100 µM in assay [1]; 30.1 µM in [2]; 40.3 µM in assay [4]; 52 µM in assay [5]; over 100 µM in assay [6]; 35.7 µM in assay [7]. In addition, the TGI in [8] was determined as 44.6 µM; in [9] it was 43.5 µM.
In the case of `c1cc[c]([Pb]([c]2ccccc2)[c]2ccccc2)cc1`, the GI50 in assay [1] is 33.4 µM; in [2], 10.7 µM; in assay [3] it was 10 µM; in [4], 3.24 µM; in assay [6], 22 µM; in [7], 8.17 µM. For the same compound, the GI50 in assay [8] is 11.3 µM; in assay [9], 26.8 µM. For the same compound, the TGI in assay [1] is over 100 µM; in assay [2], 47.8 µM; in assay [3], 32 µM; in assay [6], over 100 µM; in assay [7] it was 22.3 µM; in assay [8], 23.9 µM. Also, the TGI in [9] was 88.6 µM.
For `CCc1ccc(Nc2ccc([N+](=O)[O-])cc2[N+](=O)[O-])cc1`, the TGI in assay [1] was over 100 µM; in [3] it was over 100 µM; in [5], 99.8 µM; in assay [6] it was over 100 µM; in assay [8] it was over 100 µM; in assay [9], over 100 µM.
With `O=C1NC2OCC(O)C(O)C2O1` (configuration not stated), the TGI in assay [1], in [2], in assay [3], in assay [4], in assay [6] and in assay [7] was over 100 µM throughout. Further, the TGI in assay [8] and in assay [9] was over 100 µM in each case.
In the case of `FC(F)(F)c1nc(-c2ccccc2)oc1Sc1nnc(Sc2oc(-c3ccccc3)nc2C(F)(F)F)s1`, the TGI in [1] is over 100 µM; in assay [2], 63.4 µM; in [3] it was 49.3 µM; in assay [4], 24.9 µM; in assay [6], 28 µM; in assay [7], over 100 µM. Also, the TGI in [8] is over 57.2 µM; in assay [9], over 100 µM.
As for `CC1=N/C(=C\c2cccc([N+](=O)[O-])c2)C(=O)O1`, the TGI in assay [1], in assay [2], in [3], in assay [7], in assay [8] and in assay [9] was over 100 µM each time.
As for `CC(C)c1ccc(C(c2ccc(OCC(=O)O)cc2)c2ccc(C(C)C)cc(=O)c2O)c(O)c(=O)c1`, the TGI came out at 28 µM in [1]; 0.956 µM in assay [2]; 21 µM in [3]; 14.8 µM in assay [4]; 12.8 µM in assay [6]; 24.3 µM in assay [7]. The same compound displayed a TGI in assay [8] of 24.9 µM.
Turning to `COc1cccc(/C=C2\C(=O)N(C(=O)c3ccc(NC(C)=O)cc3)N=C2C)c1`, the TGI in assay [1], in [4], in assay [5], in assay [6], in assay [7] and in assay [8] was over 100 µM each time. The compound further yielded a TGI in assay [9] of over 100 µM.
Regarding `COC(=O)C12C3C4C1C1C2C3C41NC(=O)c1csc([C@@H](C[C@H](C(C)C)N(C)C(=O)[C@@H](NC(=O)[C@H]2CCCCN2C)C2CC2)OC(C)=O)n1` (some centres not stated), the GI50 in [1] is 0.0903 µM; in assay [3] it was 0.0226 µM; in assay [4] it was 0.00882 µM; in assay [5] it was 0.395 µM; in assay [6] it was 0.5 µM; in [7] it was 0.0242 µM. Further, the GI50 in assay [8] was 0.0527 µM; in assay [9], 0.35 µM. Moreover, the TGI in [1], in assay [3], in assay [4], in assay [5], in assay [6] and in assay [7] was over 33.3 µM in each case. In addition, the TGI in [8] and in [9] was over 33.3 µM throughout.
With `COC(=O)c1cc(C)c(C)c2c1NC(=O)CNC2=O`, the TGI in [1] is over 100 µM; in assay [3], over 100 µM; in assay [6], over 100 µM; in assay [7] it was over 100 µM; in assay [8], over 100 µM; in [9], 91.6 µM.
For `CNc1nc(N)c(N=O)c(Nc2ccc(Br)cc2)n1`, the TGI in assay [1], in assay [3], in [4], in [7], in assay [8] and in assay [9] was over 100 µM each time.
